± gives the expanded uncertainty stated by the source.
Tests used:
[1] = cn = amount concentration of the nth substance listed, in mol/dm3; details: 293.15 K, 101 kPa, Liquid; for viscosity: Capillary tube (Ostwald / Ubbelohde) method; for electrical conductivity: Frequency=0.001 MHz, digital bridge-type conductivity meter; for mass density: Vibrating tube method
[2] = 293.15 K, 101.33 kPa, Liquid; for viscosity: Capillary tube (Ostwald / Ubbelohde) method
[3] = refractive index (Na D-line) (dimensionless); details: 293.15 K; 101.33 kPa; Liquid; Standard Abbe refractometry
[4] = wn = mass fraction of the nth substance listed; details: 293.15 K, 101.33 kPa, Liquid; for viscosity: Capillary tube (Ostwald / Ubbelohde) method; for mass density: Vibrating tube method

SMILES: O=S(=O)([O-])[O-].[Zn+2] [zinc sulfate] + O
- viscosity ([1]; c1 = 0.0084): 1.015 ± 0.007 mPa·s
- viscosity ([1]; c1 = 0.0194): 1.022 ± 0.007 mPa·s
- viscosity ([1]; c1 = 0.0403): 1.036 ± 0.007 mPa·s
- viscosity ([1]; c1 = 0.0545): 1.045 ± 0.007 mPa·s
- viscosity ([1]; c1 = 0.0714): 1.054 ± 0.007 mPa·s
- viscosity ([1]; c1 = 0.0795): 1.062 ± 0.007 mPa·s
- viscosity ([1]; c1 = 0.0979): 1.074 ± 0.008 mPa·s
- viscosity ([1]; c1 = 0.1391): 1.103 ± 0.008 mPa·s
- viscosity ([1]; c1 = 0.1756): 1.127 ± 0.008 mPa·s
- viscosity ([1]; c1 = 0.1998): 1.144 ± 0.008 mPa·s
- electrical conductivity ([1]; c1 = 5e-05): 0.00119 ± 1e-05 S/m
- electrical conductivity ([1]; c1 = 0.00011): 0.00229 ± 1e-05 S/m
- electrical conductivity ([1]; c1 = 0.00019): 0.00391 ± 2e-05 S/m
- electrical conductivity ([1]; c1 = 0.00042): 0.0084 ± 3e-05 S/m
- electrical conductivity ([1]; c1 = 0.00063): 0.01218 ± 5e-05 S/m
- electrical conductivity ([1]; c1 = 0.00083): 0.0154 ± 6e-05 S/m
- electrical conductivity ([1]; c1 = 0.00101): 0.01833 ± 7e-05 S/m
- electrical conductivity ([1]; c1 = 0.00127): 0.02201 ± 9e-05 S/m
- mass density ([1]; c1 = 5e-05): 998.22 ± 0.19 kg/m3
- mass density ([1]; c1 = 0.00011): 998.23 ± 0.19 kg/m3
- mass density ([1]; c1 = 0.00019): 998.25 ± 0.18 kg/m3
- mass density ([1]; c1 = 0.00042): 998.29 ± 0.18 kg/m3
- mass density ([1]; c1 = 0.00063): 998.32 ± 0.16 kg/m3
- mass density ([1]; c1 = 0.00083): 998.36 ± 0.17 kg/m3
- mass density ([1]; c1 = 0.00101): 998.39 ± 0.16 kg/m3
- mass density ([1]; c1 = 0.00127): 998.41 ± 0.15 kg/m3
- mass density ([1]; c1 = 0.0084): 999.63 ± 0.18 kg/m3
- mass density ([1]; c1 = 0.0194): 1001.48 ± 0.17 kg/m3
- mass density ([1]; c1 = 0.0403): 1004.95 ± 0.18 kg/m3
- mass density ([1]; c1 = 0.0545): 1007.37 ± 0.15 kg/m3
- mass density ([1]; c1 = 0.0714): 1009.43 ± 0.16 kg/m3
- mass density ([1]; c1 = 0.0795): 1011.4 ± 0.19 kg/m3
- mass density ([1]; c1 = 0.0979): 1014.39 ± 0.17 kg/m3
- mass density ([1]; c1 = 0.1391): 1021.1 ± 0.17 kg/m3
- mass density ([1]; c1 = 0.1756): 1027.12 ± 0.17 kg/m3
- mass density ([1]; c1 = 0.1998): 1030.93 ± 0.17 kg/m3

SMILES: O [water]
- viscosity [2]: 1.008 ± 0.007 mPa·s

SMILES: OCCO [1,2-ethanediol]
- viscosity [2]: 20.81 ± 0.3 mPa·s
- mass density ([2]; Vibrating tube method): 1113.23 ± 0.3 kg/m3
- refractive index [3]: 1.4319 ± 0.0007

SMILES: OCCO [1,2-ethanediol] + O
- viscosity ([4]; w1 = 0.1): 1.293 ± 0.009 mPa·s
- viscosity ([4]; w1 = 0.2): 1.671 ± 0.012 mPa·s
- viscosity ([4]; w1 = 0.3): 2.177 ± 0.016 mPa·s
- viscosity ([4]; w1 = 0.4): 2.837 ± 0.022 mPa·s
- viscosity ([4]; w1 = 0.5): 3.558 ± 0.029 mPa·s
- viscosity ([4]; w1 = 0.6): 4.724 ± 0.041 mPa·s
- viscosity ([4]; w1 = 0.7): 6.36 ± 0.06 mPa·s
- viscosity ([4]; w1 = 0.8): 8.003 ± 0.081 mPa·s
- viscosity ([4]; w1 = 0.9): 14 ± 0.17 mPa·s
- mass density ([4]; w1 = 0.1): 1011.1 ± 0.05 kg/m3
- mass density ([4]; w1 = 0.2): 1024.49 ± 0.05 kg/m3
- mass density ([4]; w1 = 0.4): 1049.89 ± 0.12 kg/m3
- mass density ([4]; w1 = 0.5): 1062.42 ± 0.09 kg/m3
- mass density ([4]; w1 = 0.7): 1085.2 ± 0.11 kg/m3
- mass density ([4]; w1 = 0.8): 1095.34 ± 0.11 kg/m3
- mass density ([4]; w1 = 0.9): 1103.7 ± 0.13 kg/m3

SMILES: O [water] + OCCO
- viscosity ([4]; w2 = 0): 1.008 ± 0.007 mPa·s

Source: the NIST ThermoML archive (doi:10.1016/j.jct.2006.01.011)
